Laboratory results from US20180105546A1, “Methods for Chemical Synthesis of Biologically Active Compounds Using Supramolecular Protective Groups and Novel Compounds Obtainable Thereby” (Rijksuniversiteit Groningen, priority 2011, published 2018).
Entries after “also recorded” stand apart in the source; their conditions may differ.

Columns and labels:
E. coli ATCC 25922 [1] = test: Kirby-Bauer disk test (zone of inhibition); assay type: cell-based; conditions: amount 17.5 nmol per disk, HFBA salts except 1* (sulphate)
Procedure: Antibiotic disks preparation. Paper disks (6 mm diameter, BBL Microbiology Systems) were wetted through with 20, 25, 30 and 35 μL of a solution containing the antibiotic sample at a concentration of 0.5 nmol/μL. The wet disks were dried in a desiccator overnight, and used the next day.
Culture preparation. A colony picked from a freshly made plate of the bacteria strain E. coli ATCC 25922 was used to inoculate 20 mL of Mueller-Hinton broth and the obtained culture was grown overnight at 37° C. and 250 RPM shaking.
Kirby-Bauer test procedure. A new culture was made adding 1 mL of overnight culture in 99 mL of fresh Mueller-Hinton broth. The culture was grown at 37° C. and 250 RPM shaking until it reached an OD600 of 0.132 (0.5 McFarland) and a series of Mueller-Ilinton-Agar plates preheated at 37° C. were inoculated spreading 200 μL of that culture with sterile cotton. The plates were then dried for 30 minutes. Then on each plate 3 or 4 antibiotic paper disks were placed. The plates were incubated overnight at 37° C. and subsequently the diameter of the inhibition growth zone was measured.

E. coli ATCC 25922 [2] = test: Minimum Inhibitory Concentration (MIC) test; assay type: cell-based; conditions: for MIC: E. coli ATCC 25922, Mueller-Hinton broth, overnight 37° C., HFBA salts except 1* (sulphate); for antimicrobial activity against E. coli ATCC 25922 (in words): Kirby-Bauer Disk Test and MIC, summary statement
Procedure: All test solutions contained 40 nmol of antibiotic. After drying, the samples were resuspended in 100 μL of Mueller-Hinton broth. Each solution of antibiotic in broth media was pipetted in the first lane of a 96 well plate (volume of well 500 μL). The remaining lanes were filled with 50 μL of E. coli ATCC 25922 culture with an OD600 of 0.264. Series of 2-fold dilution were made removing from the first lane 50 μL of the antibiotic solution and resuspending it with the culture contained in the next well. At the end, all wells were filled with 100 μL of E. coli ATCC 25922 culture in Mueller-Hinton with an OD600 of 0.132 (0.5 McFarland) and the appropriate amount of antibiotic. The 96-well plates were incubated overnight at 37° C. and 350 RPM shaking.

Row | Compound | Diameter (zones of inhibition as determined by Kirby-Bauer disk method) (E. coli ATCC 25922 [1]) [mm] | MIC (E. coli ATCC 25922 [2]; Escherichia coli, ATCC25922) [µM] | antimicrobial activity against E. coli ATCC 25922 (in words) (E. coli ATCC 25922 [2]) | MIC (E. coli ATCC 25922 [2]) [µM]
1 | NC[C@@H]1O[C@H](O[C@H]2[C@@H](O)[C@H](O[C@@H]3[C@@H](O)[C@H](N)C[C@H](N)[C@H]3O[C@H]3O[C@H](CO)[C@@H](O)[C@H](O)[C@H]3N)O[C@@H]2CO)[C@H](N)[C@@H](O)[C@@H]1O [2^, paromomycin, reference compound] | 13.2 | 12.5 |  | 
2 | CC(C)C(=O)NCC1O[C@H](OC2C(O)[C@H](OC3C(O)[C@H](N)CC(N)[C@H]3O[C@H]3OC(CN)[C@@H](O)C(O)C3N)O[C@@H]2CO)C(N)C(O)[C@@H]1O (some centres unmarked) [compound 6] | 11.5 | 12.5 | still highly active; also recorded: same biological activity as paromomycin 2 | 
3 | NCC1OC(OC2C(CO)OC(OC3C(O)C(N)CC(N)C3OC3OC(CN)C(O)C(O)C3N)C2O)C(N)C(O)C1O.O=C(O)C(F)(F)C(F)(F)C(F)(F)F.O=C(O)C(F)(F)C(F)(F)C(F)(F)F.O=C(O)C(F)(F)C(F)(F)C(F)(F)F.O=C(O)C(F)(F)C(F)(F)C(F)(F)F.O=C(O)C(F)(F)C(F)(F)C(F)(F)F.O=C(O)C(F)(F)C(F)(F)C(F)(F)F (centres unmarked) [1^, neomycin B×6 HFBA, reference compound] | 16.1 |  |  | 3.1
4 | neomycin B [compound 1, reference compound] |  |  |  | 3.1
5 | CC(=O)NCC1O[C@H](OC2C(O)[C@H](OC3C(O)[C@H](N)CC(N)[C@H]3O[C@H]3OC(CN)[C@@H](O)C(O)C3N)O[C@@H]2CO)C(N)C(O)[C@@H]1O (some centres unmarked) [5a, N^6(VI)-acetyl neomycin B] | 13.9 | 6.3 | still highly active | 
